A short description of this data set: Mean peak blood calcitonin concentration (Cmax) of sCT after oral capsule dosing of monkeys. Format: in vivo, cynomolgous monkeys. The source says: 5-CNAC disodium salt ethanol solvate was screened through a 35 mesh Tyler standard sieve. 13.54 g of this material was weighed out and kept in a weighing boat. 0.028 g of parathyroid hormone (PTH) and 0.025 g of salmon calcitonin (sCT) were separately weighed out and kept in separate weighing boats. An amount of the previously weighed 5-CNAC disodium salt ethanol solvate approximately equivalent in volume to the total volume of PTH (i.e. a geometric amount) was prescreened through the same 35 mesh Tyler standard sieve on to clean paper. All the PTH was then screened through the same sieve onto the same paper. An amount of the screened 5-CNAC disodium salt ethanol solvate equivalent in volume to the total amount of material on the paper was screened through the same sieve. This was followed by screening the sCT through the same sieve on to the paper. A geometric amount of the 5-CNAC disodium salt ethanol solvate was then screened through the same sieve onto the paper. The materials on the paper were then transferred to a glass mortar and mixed by light trituration with a pestle. The remainder of the 5-CNAC disodium salt ethanol solvate was screened through the same 35 mesh Tyler standard sieve. […]
Four cynomolgous monkeys were dosed via a feeding tube two capsules each followed by 10 ml water. The mean peak blood calcitonin concentration, Cmax, of sCT was then measured.

For orientation: Cmax means the peak of the concentration-time curve.

The structures appear in SMILES notation.

For `CC(C)C[C@H](NC(=O)[C@H](CCCCN)NC(=O)CNC(=O)[C@H](CC(C)C)NC(=O)[C@@H](NC(=O)[C@@H]1CSSC[C@H](N)C(=O)N[C@@H](CO)C(=O)N[C@@H](CC(N)=O)C(=O)N[C@@H](CC(C)C)C(=O)N[C@@H](CO)C(=O)N[C@@H]([C@@H](C)O)C(=O)N1)C(C)C)C(=O)N[C@@H](CO)C(=O)N[C@@H](CCC(N)=O)C(=O)N[C@@H](CCC(=O)O)C(=O)N[C@@H](CC(C)C)C(=O)N[C@@H](Cc1c[nH]cn1)C(=O)N[C@@H](CCCCN)C(=O)N[C@@H](CC(C)C)C(=O)N[C@@H](CCC(N)=O)C(=O)N[C@H](C(=O)N[C@@H](Cc1ccc(O)cc1)C(=O)N1CCC[C@H]1C(=O)N[C@@H](CCCNC(=N)N)C(=O)N[C@H](C(=O)N[C@@H](CC(N)=O)C(=O)N[C@H](C(=O)NCC(=O)N[C@@H](CO)C(=O)NCC(=O)N[C@H](C(=O)N1CCC[C@H]1C(N)=O)[C@@H](C)O)[C@@H](C)O)[C@@H](C)O)[C@@H](C)O` [sCT, salmon calcitonin], the “mean peak blood concentration of sCT relative to that found when dosing capsules of 5-CNAC and sCT in rhesus monkeys” value (capsules of 5-CNAC disodium salt ethanol solvate, PTH and sCT in cynomolgous monkeys vs capsules of 5-CNAC and sCT in rhesus monkeys) is given as “about four”. Under “monkey, blood, oral, cynomolgous monkeys, via feeding tube two capsules each (per capsule approx. 226.28 mg 5-CNAC disodium salt ethanol solvate, 0.461 mg PTH, 0.411 mg sCT) followed by 10 ml water”, the Cmax was 2 to 2.5 ng/mL.
